Test results as given in patent US9469650B2, “Melampomagnolide B derivatives” (BOARD OF TRUSTEES OF THE UNIVERSITY OF ARKANSAS, priority 2013, dated 2016).
Where two headings read alike, the source gives them in different places.

Assays:
OVCAR-3 = assay: panel of 60 human tumor cell lines, growth inhibition (Ovarian Cancer); conditions: OVCAR-3
SK-MEL-2 = assay: panel of 60 human tumor cell lines, growth inhibition (Melanoma); conditions: SK-MEL-2
SN12C = assay: panel of 60 human tumor cell lines, growth inhibition (Renal Cancer)
SNB-75 = assay: panel of 60 human tumor cell lines, growth inhibition (CNS Cancer); conditions: SNB-75
MDA-MB-231/ATCC = assay: panel of 60 human tumor cell lines, growth inhibition (Breast Cancer); conditions: MDA-MB-231/ATCC
UACC-257 = assay: panel of 60 human tumor cell lines, growth inhibition (Melanoma); conditions: UACC-257
SR = assay: panel of 60 human tumor cell lines, growth inhibition (Leukemia)
OVCAR-8 = assay: panel of 60 human tumor cell lines, growth inhibition (Ovarian Cancer); conditions: OVCAR-8
A549/ATCC = assay: panel of 60 human tumor cell lines, growth inhibition (Non-Small Cell Lung Cancer); conditions: A549/ATCC
HT29 = assay: panel of 60 human tumor cell lines, growth inhibition (Colon Cancer); conditions: HT29
MDA-MB-468 = assay: panel of 60 human tumor cell lines, growth inhibition (Breast Cancer); conditions: MDA-MB-468
CCRF-CEM = assay: panel of 60 human tumor cell lines, growth inhibition (Leukemia)
HCT-116 = assay: panel of 60 human tumor cell lines, growth inhibition (Colon Cancer); conditions: HCT-116
TK-10 = assay: panel of 60 human tumor cell lines, growth inhibition (Renal Cancer); conditions: TK-10
UACC-62 = assay: panel of 60 human tumor cell lines, growth inhibition (Melanoma); conditions: UACC-62
SK-MEL-28 = assay: as above; conditions: SK-MEL-28

## C=C1C(=O)O[C@H]2[C@H]1CC/C(COC(=O)NCCO)=C\CC[C@@]1(C)O[C@@H]21 [JVM 2-50]
OVCAR-3; Log10 Concentration −4.0
  Percent Growth: −93%
OVCAR-3; Log10 Concentration −5.0
  Percent Growth: 40%
OVCAR-3; Log10 Concentration −6.0
  Percent Growth: 103%
OVCAR-3; Log10 Concentration −7.0
  Percent Growth: 106%
OVCAR-3; Log10 Concentration −8.0
  Percent Growth: 103%
OVCAR-3; NCI five dose
  GI50: 6.27 µM
  TGI: 1.99E−5
SK-MEL-2; Log10 Concentration −4.0
  Percent Growth: −54%
SK-MEL-2; Log10 Concentration −5.0
  Percent Growth: 83%
SK-MEL-2; Log10 Concentration −6.0
  Percent Growth: 115%
SK-MEL-2; Log10 Concentration −7.0
  Percent Growth: 116%
SK-MEL-2; Log10 Concentration −8.0
  Percent Growth: 106%
SK-MEL-2; NCI five dose
  GI50: 18.5 µM
  TGI: 4.18E−5
SN12C; Log10 Concentration −4.0
  Percent Growth: −12%
SN12C; Log10 Concentration −5.0
  Percent Growth: 73%
SN12C; Log10 Concentration −6.0
  Percent Growth: 31%
SN12C; Log10 Concentration −7.0
  Percent Growth: 91%
SN12C; Log10 Concentration −8.0
  Percent Growth: 94%
SN12C; NCI five dose
  GI50: 18.6 µM
  TGI: 7.22E−5
SNB-75; Log10 Concentration −4.0
  Percent Growth: −20%
SNB-75; Log10 Concentration −5.0
  Percent Growth: 68%
SNB-75; Log10 Concentration −6.0
  Percent Growth: 79%
SNB-75; Log10 Concentration −7.0
  Percent Growth: 79%
SNB-75; Log10 Concentration −8.0
  Percent Growth: 70%
SNB-75; NCI five dose
  GI50: 16 µM
  TGI: 5.92E−5
HL-60(TB); Log10 Concentration −4.0
  Percent Growth: −48%
HL-60(TB); Log10 Concentration −5.0
  Percent Growth: 9%
HL-60(TB); Log10 Concentration −6.0
  Percent Growth: 111%
HL-60(TB); Log10 Concentration −7.0
  Percent Growth: 109%
HL-60(TB); Log10 Concentration −8.0
  Percent Growth: 106%
HL-60(TB); NCI five dose
  GI50: 3.99 µM
HL-60(TB); read-out: LC50, NCI five dose
  CC50: > 100 µM
MDA-MB-231/ATCC; Log10 Concentration −4.0
  Percent Growth: −66%
MDA-MB-231/ATCC; Log10 Concentration −5.0
  Percent Growth: 63%
MDA-MB-231/ATCC; Log10 Concentration −6.0
  Percent Growth: 99%
MDA-MB-231/ATCC; Log10 Concentration −7.0
  Percent Growth: 91%
MDA-MB-231/ATCC; Log10 Concentration −8.0
  Percent Growth: 100%
MDA-MB-231/ATCC; NCI five dose
  GI50: 12.7 µM
  TGI: 1.10E−5
UACC-257; Log10 Concentration −4.0
  Percent Growth: −73%
UACC-257; Log10 Concentration −5.0
  Percent Growth: 44%
UACC-257; Log10 Concentration −6.0
  Percent Growth: 65%
UACC-257; Log10 Concentration −7.0
  Percent Growth: 90%
UACC-257; Log10 Concentration −8.0
  Percent Growth: 95%
UACC-257; NCI five dose
  GI50: 7 µM
  TGI: 2.37E−5
SR; Log10 Concentration −4.0
  Percent Growth: −30%
SR; Log10 Concentration −5.0
  Percent Growth: 18%
SR; Log10 Concentration −6.0
  Percent Growth: 91%
SR; Log10 Concentration −7.0
  Percent Growth: 100%
SR; Log10 Concentration −8.0
  Percent Growth: 100%
SR; NCI five dose
  GI50: 3.67 µM
OVCAR-8; Log10 Concentration −4.0
  Percent Growth: −25%
OVCAR-8; Log10 Concentration −5.0
  Percent Growth: 62%
OVCAR-8; Log10 Concentration −6.0
  Percent Growth: 97%
OVCAR-8; Log10 Concentration −7.0
  Percent Growth: 96%
OVCAR-8; Log10 Concentration −8.0
  Percent Growth: 98%
OVCAR-8; NCI five dose
  GI50: 13.7 µM
  TGI: 5.15E−5
A549/ATCC; Log10 Concentration −4.0
  Percent Growth: 3%
A549/ATCC; Log10 Concentration −5.0
  Percent Growth: 93%
A549/ATCC; Log10 Concentration −6.0
  Percent Growth: 96%
A549/ATCC; Log10 Concentration −7.0
  Percent Growth: 92%
A549/ATCC; Log10 Concentration −8.0
  Percent Growth: 96%
A549/ATCC; NCI five dose
  GI50: 30.2 µM
  TGI: >1.00E−4
HT29; Log10 Concentration −4.0
  Percent Growth: −47%
HT29; Log10 Concentration −5.0
  Percent Growth: 57%
HT29; Log10 Concentration −6.0
  Percent Growth: 109%
HT29; Log10 Concentration −7.0
  Percent Growth: 104%
HT29; Log10 Concentration −8.0
  Percent Growth: 99%
HT29; NCI five dose
  GI50: 11.7 µM
  TGI: 3.55E−5
MDA-MB-468; Log10 Concentration −4.0
  Percent Growth: −67%
MDA-MB-468; Log10 Concentration −5.0
  Percent Growth: −12%
MDA-MB-468; Log10 Concentration −6.0
  Percent Growth: 67%
MDA-MB-468; Log10 Concentration −7.0
  Percent Growth: 91%
MDA-MB-468; Log10 Concentration −8.0
  Percent Growth: 98%
MDA-MB-468; NCI five dose
  GI50: 1.64 µM
  TGI: 7.01E−6
CCRF-CEM; Log10 Concentration −4.0
  Percent Growth: −44%
CCRF-CEM; Log10 Concentration −5.0
  Percent Growth: 1%
CCRF-CEM; Log10 Concentration −6.0
  Percent Growth: 83%
CCRF-CEM; Log10 Concentration −7.0
  Percent Growth: 102%
CCRF-CEM; Log10 Concentration −8.0
  Percent Growth: 98%
CCRF-CEM; NCI five dose
  GI50: 2.52 µM
  TGI: 1.03E−5
HCT-116; Log10 Concentration −4.0
  Percent Growth: −75%
HCT-116; Log10 Concentration −5.0
  Percent Growth: 15%
HCT-116; Log10 Concentration −6.0
  Percent Growth: 90%
HCT-116; Log10 Concentration −7.0
  Percent Growth: 96%
HCT-116; Log10 Concentration −8.0
  Percent Growth: 93%
HCT-116; NCI five dose
  GI50: 3.43 µM
  TGI: 1.48E−5
HCT-116; read-out: LC50, NCI five dose
  CC50: 53.2 µM
TK-10; Log10 Concentration −4.0
  Percent Growth: −91%
TK-10; Log10 Concentration −5.0
  Percent Growth: 55%
TK-10; Log10 Concentration −6.0
  Percent Growth: 110%
TK-10; Log10 Concentration −7.0
  Percent Growth: 103%
TK-10; Log10 Concentration −8.0
  Percent Growth: 100%
TK-10; NCI five dose
  GI50: 10.8 µM
UACC-62; Log10 Concentration −4.0
  Percent Growth: −84%
UACC-62; Log10 Concentration −5.0
  Percent Growth: 62%
UACC-62; Log10 Concentration −6.0
  Percent Growth: 97%
UACC-62; Log10 Concentration −7.0
  Percent Growth: 93%
UACC-62; Log10 Concentration −8.0
  Percent Growth: 93%
UACC-62; NCI five dose
  GI50: 12 µM
  TGI: 2.65E−5
SK-MEL-28; Log10 Concentration −4.0
  Percent Growth: −61%
SK-MEL-28; Log10 Concentration −5.0
  Percent Growth: 48%
SK-MEL-28; Log10 Concentration −6.0
  Percent Growth: 99%
SK-MEL-28; Log10 Concentration −7.0
  Percent Growth: 104%
SK-MEL-28; Log10 Concentration −8.0
  Percent Growth: 95%
SK-MEL-28; NCI five dose
  GI50: 9.33 µM
  TGI: 2.77E−5
